Counter-ions that a name gives are not always drawn.
Assays:
[1] = tested on: bacterial strains that express KPC β-lactamases; assay: Synergy MIC / standard BLI potentiation MIC assay, strains expressing KPC β-lactamases; assay type: cell-based, isogenic E. coli and clinical isolates; settings: more active for at least one KPC strain and/or better spectrum; comparator Avibactam
Experimental: (§1) Unless otherwise indicated, the activity of the BLI compounds can be described by the MIC value obtained from a Synergy MIC assay or a BLI potentiation assay (e.g as described herein), both of which are run in the presence of a β-lactam.
(§2) The experimental protocol was performed according to Clinical and Laboratory Standards Institute (CLSI) guidelines with modifications as described below (CLSI guidelines can be derived from the CLSI document M07-A9 published in January 2012: “Methods for Dilution Antimicrobial Susceptibility Tests for Bacteria That Grow Aerobically; Approved Standard-Ninth Edition”).
(§3) To prepare for MIC testing, frozen glycerol stocks of clinical isolates (Klebsiella pneumoniae, Eschericia coli, Enterobacter spp, Citrobacter spp, or Pseudomonas aeruginosa) were used to streak for isolated colonies on rich, non-selective, tryptic soy agar containing 5% sheep's blood (TSAB). Frozen glycerol stocks of laboratory engineered, isogenic E. coli strains, which contain cloned β-lactamase expressing plasmids were used to streak for isolated colonies on rich, selective LB agar supplemented with 25 μg/mL tetracycline to maintain the plasmid. All strains were incubated at 37° C. for 18-24 hrs.
(§4) On the day of testing, primary cultures were started by scraping off 5-10 colonies from the TSAB plates containing clinical strains or the tetracycline supplemented LB plates containing engineered strains. The clinical strain material was suspended in ˜5 mL of cation adjusted Mueller Hinton Broth (CAMHB) in 14 mL culture tubes. The engineered strain material was suspended in CAMHB (supplemented with 25 μg/mL tetracycline) in 14 mL culture tubes. All strains were incubated at 37° C. with aeration (200 rpm) for ˜2 hrs until the optical density at 600 nm (OD600) was ≧0.1.
(§5) The two compound components of the assay were each diluted in CAMHB and added to the 96-well broth microdilution assay plates. 50 μL of the β-lactam was added to each well of the assay plate in 2-fold dilutions with final concentrations ranging from 128 to 0.13 μg/mL. 25 μL of the BLI compound was added to all wells in the broth microdilution plates at a final concentration of 4 μg/mL. Inoculum cultures were prepared by standardizing the primary cultures to OD600=0.1 and then adding 20 μL of the adjusted primary culture per 1 mL CAMHB for clinical strains or CAMHB (supplemented with tetracycline at 100 μg/mL) for engineered strains, so that the final inoculum density was ˜10^5 colony forming units per milliliter. Diluted inoculum cultures were used to inoculate 25 μL per well in 96-well broth microdilution assay plates. The final volume of each well was 100 μL and contained a β-lactam at different concentrations, a BLIcompound at 4 μg/mL concentration, the bacterial culture at an OD600 of approximately 0.001 and when necessary tetracycline at 25 μg/mL.
(§6) Plates were incubated for 18-20 hours at 37° C. with aeration (200 rpm). Following incubation, growth was confirmed visually placing plates over a viewing apparatus (stand with a mirror underneath) and then OD600 was measured using a SpectraMax 340PC384 plate reader (Molecular Devices, Sunnyvale, Calif.). Growth was defined as turbidity that could be detected with the naked eye or achieving minimum OD600 of 0.1. MIC values were defined as the lowest concentration producing no visible turbidity.
(§7) The synergy MIC (sMIC) assay determines the concentration of the BLI required to potentiate the activity of a fixed concentration of a β-lactam antibiotic against β-lactamase producing bacterial strains. The experimental protocol was performed according to Clinical and Laboratory Standards Institute (CLSI) guidelines with modifications as described below (CLSI guidelines can be derived from the CLSI document M07-A9 published in January 2012: “Methods for Dilution Antimicrobial Susceptibility Tests for Bacteria That Grow Aerobically; Approved Standard-Ninth Edition”). […]

[2] = tested on: bacterial strains that express the class D cephalosporinase OXA-15; assay: Synergy MIC / standard BLI potentiation MIC assay, strains expressing OXA-15; assay type: cell-based, E. coli; settings: in presence of a β-lactam; comparator Avibactam (CCC)
Experimental: as §1, §2, §3, §4, §5, §6, §7

Compound	activity and/or spectrum of activity against bacterial strains that express KPC β-lactamases, compared with Avibactam [1]	activity against bacterial strains that express OXA-15, compared with Avibactam [2]
O=C1N2C[C@@H](CC[C@H]2c2nnc(CN[C@H]3CCNC3)o2)N1OS(=O)(=O)O [Compound 765, (2S,5R)-7-oxo-2-(5-(((S)-pyrrolidin-3-ylamino)methyl)-1,3,4-oxadiazol-2-yl)-1,6-diazabicyclo[3.2.1]octan-6-yl hydrogen sulfate]	more active than Avibactam	more active than Avibactam
NCCCCc1nnc([C@@H]2CC[C@@H]3CN2C(=O)N3OS(=O)(=O)O)o1 [Compound 735, (2S,5R)-2-(5-(4-aminobutyl)-1,3,4-oxadiazol-2-yl)-7-oxo-1,6-diazabicyclo[3.2.1]octan-6-yl hydrogen sulfate]	more active than Avibactam	more active than Avibactam
O=C1N2C[C@@H](CC[C@H]2c2nnc(CCCNC3CCNCC3)o2)N1OS(=O)(=O)O [Compound 771, (2S,5R)-7-oxo-2-(5-(3-(piperidin-4-ylamino)propyl)-1,3,4-oxadiazol-2-yl)-1,6-diazabicyclo[3.2.1]octan-6-yl hydrogen sulfate]	more active than Avibactam	more active than Avibactam
N[C@H]1C[C@@H](CCc2nnc([C@@H]3CC[C@@H]4CN3C(=O)N4OS(=O)(=O)O)o2)C1 [Compound 754, (2S,5R)-2-(5-(2-((1s,3S)-3-aminocyclobutyl)ethyl)-1,3,4-oxadiazol-2-yl)-7-oxo-1,6-diazabicyclo[3.2.1]octan-6-yl hydrogen sulfate]	more active than Avibactam	more active than Avibactam
O=C1N2C[C@@H](CC[C@H]2c2nnc(CCNC3CNC3)o2)N1OS(=O)(=O)O [Compound 745, (2S,5R)-2-(5-(2-(azetidin-3-ylamino)ethyl)-1,3,4-oxadiazol-2-yl)-7-oxo-1,6-diazabicyclo[3.2.1]octan-6-yl hydrogen sulfate]	more active than Avibactam	more active than Avibactam
N[C@@H]1CN[C@@H](c2nnc([C@@H]3CC[C@@H]4CN3C(=O)N4OS(=O)(=O)O)o2)C1 [Compound 763, (2S,5R)-2-(5-((2R,4S)-4-aminopyrrolidin-2-yl)-1,3,4-oxadiazol-2-yl)-7-oxo-1,6-diazabicyclo[3.2.1]octan-6-yl hydrogen sulfate]	more active than Avibactam	more active than Avibactam
CC(C)(N)Cc1nnc([C@@H]2CC[C@@H]3CN2C(=O)N3OS(=O)(=O)O)o1 [Compound 737, (2S,5R)-2-(5-(2-amino-2-methylpropyl)-1,3,4-oxadiazol-2-yl)-7-oxo-1,6-diazabicyclo[3.2.1]octan-6-yl hydrogen sulfate]	more active than Avibactam	more active than Avibactam
O=C1N2C[C@@H](CC[C@H]2c2nnc([C@H]3[C@@H]4CNC[C@@H]43)o2)N1OS(=O)(=O)O [Compound 740, (2S,5R)-2-(5-(3-azabicyclo[3.1.0]hexan-6-yl)-1,3,4-oxadiazol-2-yl)-7-oxo-1,6-diazabicyclo[3.2.1]octan-6-yl hydrogen sulfate]	more active than Avibactam	more active than Avibactam
O=C1N2C[C@@H](CC[C@H]2c2nnco2)N1OS(=O)(=O)O [Compound 701, (2S,5R)-2-(1,3,4-oxadiazol-2-yl)-7-oxo-1,6-diazabicyclo[3.2.1]octan-6-yl hydrogen sulfate]	more active than Avibactam	more active than Avibactam
N[C@H]1C[C@H](c2nnc([C@@H]3CC[C@@H]4CN3C(=O)N4OS(=O)(=O)O)s2)C1 [Compound 783, (2S,5R)-2-(5-((1r,3S)-3-aminocyclobutyl)-1,3,4-thiadiazol-2-yl)-7-oxo-1,6-diazabicyclo[3.2.1]octan-6-yl hydrogen sulfate]	more active than Avibactam	more active than Avibactam
CNCCCc1nnc([C@@H]2CC[C@@H]3CN2C(=O)N3OS(=O)(=O)O)o1 [Compound 734, 2S,5R)-2-(5-(3-(methylamino)propyl)-1,3,4-oxadiazol-2-yl)-7-oxo-1,6-diazabicyclo[3.2.1]octan-6-yl hydrogen sulfate]	more active than Avibactam	more active than Avibactam
O=C1N2C[C@@H](CC[C@H]2c2nnc(CN[C@@H]3CCNC3)o2)N1OS(=O)(=O)O [Compound 766, (2S,5R)-7-oxo-2-(5-(((R)-pyrrolidin-3-ylamino)methyl)-1,3,4-oxadiazol-2-yl)-1,6-diazabicyclo[3.2.1]octan-6-yl hydrogen sulfate]	more active than Avibactam	more active than Avibactam
O=C1N2C[C@@H](CC[C@H]2c2nnc(C3CCNC3)o2)N1OS(=O)(=O)O (stereo partly drawn) [Compound 710, (2S,5R)-7-oxo-2-(5-(pyrrolidin-3-yl)-1,3,4-oxadiazol-2-yl)-1,6-diazabicyclo[3.2.1]octan-6-yl hydrogen sulfate]	more active than Avibactam	more active than Avibactam
CNCCc1nnc([C@@H]2CC[C@@H]3CN2C(=O)N3OS(=O)(=O)O)o1 [Compound 722, (2S,5R)-2-(5-(2-(methylamino)ethyl)-1,3,4-oxadiazol-2-yl)-7-oxo-1,6-diazabicyclo[3.2.1]octan-6-yl hydrogen sulfate]	more active than Avibactam	more active than Avibactam
O=C1N2C[C@@H](CC[C@H]2c2nnc(CCCC3CNC3)o2)N1OS(=O)(=O)O [Compound 743, (2S,5R)-2-(5-(3-(azetidin-3-yl)propyl)-1,3,4-oxadiazol-2-yl)-7-oxo-1,6-diazabicyclo[3.2.1]octan-6-yl hydrogen sulfate]	more active than Avibactam	more active than Avibactam
NCCc1nnc([C@@H]2CC[C@@H]3CN2C(=O)N3OS(=O)(=O)O)o1 [Compound 703, (2S,5R)-2-(5-(2-aminoethyl)-1,3,4-oxadiazol-2-yl)-7-oxo-1,6-diazabicyclo[3.2.1]octan-6-yl hydrogen sulfate]	more active than Avibactam	more active than Avibactam

— patent US8933233B2, “1,3,4-oxadiazole and 1,3,4-thiadiazole β-lactamase inhibitors” (priority 2012, dated 2015)
